Source: ChEMBL document CHEMBL1201862, “PubChem BioAssay data set” (2004)
The source made the active and inactive calls.

Columns and labels:
[1] = molecular target: Potassium channel subfamily K member 9 (Homo sapiens, UniProt Q9NPC2); test: KCNK9 flux blockade, concentration-response – cell-based, FluxOR thallium flux, selectivity assay for TASK1 inhibitor project, SAR follow-up (AID 652211); type: functional;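 also: potency is for inhibitors of the channel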
[2] = molecular target: Potassium channel subfamily K member 3 (Rattus norvegicus, UniProt O54912); test: SAR analysis for the identification of selective inhibitors of the two-pore domain potassium channel TASK1(KCNK3):Automated Electrophysiology.; type: functional
[3] = molecular target: Potassium channel subfamily K member 3 (Homo sapiens, UniProt O14649); test: inhibition of human KCNK3 channel flux – CHO cells, FluxOR thallium flux, SAR follow-up (AID 652212); type: functional
[4] = molecular target: T1, Apoptotic protease-activating factor 1 (Homo sapiens, UniProt O14727); type: functional
T1 sequence (O14727 whole entry): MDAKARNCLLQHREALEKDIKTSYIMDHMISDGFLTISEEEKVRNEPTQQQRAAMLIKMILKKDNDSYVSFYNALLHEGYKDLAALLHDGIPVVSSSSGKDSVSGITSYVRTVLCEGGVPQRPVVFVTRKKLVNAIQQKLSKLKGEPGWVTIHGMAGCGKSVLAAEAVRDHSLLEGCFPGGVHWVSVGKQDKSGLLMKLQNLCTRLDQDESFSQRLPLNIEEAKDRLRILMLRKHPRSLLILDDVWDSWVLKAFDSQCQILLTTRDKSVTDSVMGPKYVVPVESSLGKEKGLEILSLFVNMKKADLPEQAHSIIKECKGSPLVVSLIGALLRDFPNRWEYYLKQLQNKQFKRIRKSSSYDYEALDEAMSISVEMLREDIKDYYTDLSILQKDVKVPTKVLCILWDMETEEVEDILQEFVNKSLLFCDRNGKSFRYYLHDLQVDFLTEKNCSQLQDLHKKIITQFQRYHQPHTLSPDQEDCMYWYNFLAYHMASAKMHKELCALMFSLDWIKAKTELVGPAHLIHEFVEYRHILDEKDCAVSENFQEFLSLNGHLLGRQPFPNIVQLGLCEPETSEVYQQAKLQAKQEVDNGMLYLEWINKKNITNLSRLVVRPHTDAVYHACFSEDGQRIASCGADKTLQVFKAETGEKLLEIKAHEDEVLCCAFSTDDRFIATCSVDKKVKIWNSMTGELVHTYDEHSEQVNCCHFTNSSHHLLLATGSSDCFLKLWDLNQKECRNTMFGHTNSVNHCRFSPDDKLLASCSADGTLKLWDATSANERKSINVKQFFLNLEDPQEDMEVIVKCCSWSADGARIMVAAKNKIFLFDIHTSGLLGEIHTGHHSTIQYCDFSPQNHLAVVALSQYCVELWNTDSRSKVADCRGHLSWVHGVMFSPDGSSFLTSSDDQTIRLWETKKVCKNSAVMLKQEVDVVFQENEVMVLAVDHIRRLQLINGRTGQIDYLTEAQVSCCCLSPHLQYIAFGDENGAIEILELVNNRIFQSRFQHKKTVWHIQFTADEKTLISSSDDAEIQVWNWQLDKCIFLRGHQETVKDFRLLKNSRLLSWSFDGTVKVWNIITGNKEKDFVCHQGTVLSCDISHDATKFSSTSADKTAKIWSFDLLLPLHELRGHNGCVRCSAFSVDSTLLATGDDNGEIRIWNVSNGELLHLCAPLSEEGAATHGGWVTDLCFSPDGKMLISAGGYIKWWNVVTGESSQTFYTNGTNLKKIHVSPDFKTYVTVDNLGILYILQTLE

[5] = molecular target: Genome polyprotein (dengue virus type 2, UniProt P29990); test: flavivirus cap methylation enzyme inhibition – biochemical, confirmation dose response, primary screen (AID 588689); type: functional
[6] = molecular target: Tyrosyl-DNA phosphodiesterase 2 (Homo sapiens, UniProt O95551); test: potency against TDP2 phosphodiesterase activity – biochemical, epi absorbance, IC50, dose response (AID 743297)
[7] = molecular target: T2, Short transient receptor potential channel 4 (Mus musculus, UniProt Q9QUQ5); test: calcium entry via TRPC4 opening agents – cell-based, HEK293 TRPC4/mu-opioid, Fluo-4 calcium, dose response (AID 434937); type: functional
T2 sequence (Q9QUQ5 whole entry): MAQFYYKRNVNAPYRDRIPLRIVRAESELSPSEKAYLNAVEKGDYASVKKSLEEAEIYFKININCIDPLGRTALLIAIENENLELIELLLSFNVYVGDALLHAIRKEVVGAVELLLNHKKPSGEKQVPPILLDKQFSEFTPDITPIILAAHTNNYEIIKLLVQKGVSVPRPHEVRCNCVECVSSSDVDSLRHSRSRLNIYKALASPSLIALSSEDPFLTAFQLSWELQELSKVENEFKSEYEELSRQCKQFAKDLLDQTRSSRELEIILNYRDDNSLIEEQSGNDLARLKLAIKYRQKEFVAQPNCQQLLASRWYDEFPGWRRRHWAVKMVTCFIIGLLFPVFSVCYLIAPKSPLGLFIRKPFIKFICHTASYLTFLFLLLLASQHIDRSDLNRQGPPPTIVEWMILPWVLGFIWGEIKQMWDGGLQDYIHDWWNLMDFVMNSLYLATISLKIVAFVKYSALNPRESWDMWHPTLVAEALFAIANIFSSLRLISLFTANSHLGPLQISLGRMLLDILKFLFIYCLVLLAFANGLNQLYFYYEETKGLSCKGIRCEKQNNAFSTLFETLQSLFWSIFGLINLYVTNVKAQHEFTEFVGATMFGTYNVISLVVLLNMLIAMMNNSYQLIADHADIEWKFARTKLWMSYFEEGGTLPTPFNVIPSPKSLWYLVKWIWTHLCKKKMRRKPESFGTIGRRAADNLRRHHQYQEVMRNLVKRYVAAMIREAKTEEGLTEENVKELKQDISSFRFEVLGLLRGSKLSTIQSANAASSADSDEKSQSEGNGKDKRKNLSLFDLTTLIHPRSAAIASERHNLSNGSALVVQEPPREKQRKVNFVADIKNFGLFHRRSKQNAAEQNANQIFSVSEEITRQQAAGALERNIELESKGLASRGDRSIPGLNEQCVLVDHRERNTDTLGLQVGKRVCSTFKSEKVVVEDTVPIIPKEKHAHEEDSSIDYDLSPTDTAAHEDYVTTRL

[8] = molecular target: T3, Heat shock factor protein 1 (Mus musculus, UniProt P38532); test: enhancement of HSF1-driven luciferase signal – cell-based, NIH3T3, luminescence, dose retest, confirmation (AID 435004); type: functional;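 also: stress induced by proteasome inhibitor MG132 added 30 min after compound; luciferase reporter driven by HSF1 response element in NIH3T3 cells; actives raise luminescence as potentiators of the MG132 stress response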
T3 sequence (P38532 whole entry): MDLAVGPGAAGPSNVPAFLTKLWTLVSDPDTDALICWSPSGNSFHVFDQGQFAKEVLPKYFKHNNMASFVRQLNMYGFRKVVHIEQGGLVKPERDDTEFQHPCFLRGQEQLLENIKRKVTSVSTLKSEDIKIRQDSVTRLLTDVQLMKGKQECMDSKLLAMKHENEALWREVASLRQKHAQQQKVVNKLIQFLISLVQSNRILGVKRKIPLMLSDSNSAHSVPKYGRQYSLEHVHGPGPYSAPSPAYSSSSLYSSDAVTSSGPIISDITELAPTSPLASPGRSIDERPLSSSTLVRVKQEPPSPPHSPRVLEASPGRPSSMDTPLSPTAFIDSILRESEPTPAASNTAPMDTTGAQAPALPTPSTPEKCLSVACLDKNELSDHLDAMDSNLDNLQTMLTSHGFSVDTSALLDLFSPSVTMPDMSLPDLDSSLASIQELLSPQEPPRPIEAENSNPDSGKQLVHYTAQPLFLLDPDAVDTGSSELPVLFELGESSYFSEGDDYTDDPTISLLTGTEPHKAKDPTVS

[9] = molecular target: Heat shock protein HSP 90-alpha (Homo sapiens, UniProt P07900); type: functional, organism-based
[10] = reduction of Shn3 3'UTR-driven luciferase in osteoblasts – cell-based, Clone20 osteoblasts, firefly luciferase, cherry-picked, dose response (AID 624132); type: functional;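 also: firefly luciferase luminescence from reporter carrying the Shn3 3'UTR in osteoblasts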
[11] = EF1alpha-driven Renilla reporter with control 3'UTR suppression – Clone20-Shn3RL cells, dual-Glo, cherry-pick, set 2, counter-screen for Shn3 3'UTR targeting project, dose response (AID 720724); type: functional, cell-based; settings: Dual-Go Shn3RL
[12] = viability of BHK-21 cells – cell-based, secondary screen, cytotoxicity control for flavivirus guanylyltransferase probe project (AID 624078); type: functional
[13] = activation of miR-122 Renilla sensor silencing – cell-based, Huh7 psiCHECK-miR122, Renilla luciferase, cherry-picked, dose response (AID 651956); type: functional;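 also: huh7 hepatoma cells stably carrying a psiCHECK-2 miR-122 sensor plasmid; renilla luciferase signal reporting endogenous miR-122 activity after 48 h compound exposure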
[14] = viability loss in HEK293 kidney cells – cell-based, cherry-picks, set 5, cytotoxicity control, dose response (AID 1053117); type: functional
[15] = P. falciparum Dd2 growth inhibitors, dose response, SYBR Green, cherry-picked samples (AID 1159567); type: functional, cell-based
[16] = toxicity to human hepatoma HepG2 cells – cell-based, cherry-picked samples, cytotoxicity control, dose response (AID 1159577); type: functional
[17] = molecular target: 1-phosphatidylinositol 4,5-bisphosphate phosphodiesterase gamma-1 (Homo sapiens, UniProt P19174); test: Counterscreen for inhibitors of phospholipase C isozymes (PLC-B3): Fluorescence-based biochemical high throughput dose response assay to identify inhibitors of phospholipase C isozymes (PLC-gamma1).
[18] = molecular target: 1-phosphatidylinositol 4,5-bisphosphate phosphodiesterase beta-3 (Homo sapiens, UniProt Q01970); test: Fluorescence-based biochemical high throughput dose response assay to identify inhibitors of phospholipase C isozymes (PLC-B3).
[19] = molecular target: T4, Carboxy-terminal domain RNA polymerase II polypeptide A small phosphatase 1 (Homo sapiens, UniProt Q9GZU7); test: CTDSP1 inhibitors, concentration-response, biochemical, absorbance readout, ultra-high-throughput screen actives (AID 540297); type: functional
T4 sequence (Q9GZU7 whole entry): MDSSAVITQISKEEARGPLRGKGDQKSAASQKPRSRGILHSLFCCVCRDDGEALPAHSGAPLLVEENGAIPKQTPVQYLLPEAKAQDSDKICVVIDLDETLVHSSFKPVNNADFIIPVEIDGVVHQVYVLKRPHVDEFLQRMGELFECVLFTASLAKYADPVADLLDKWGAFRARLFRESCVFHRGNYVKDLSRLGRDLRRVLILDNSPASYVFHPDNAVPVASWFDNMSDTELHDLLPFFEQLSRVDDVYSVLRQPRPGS

[20] = molecular target: DNA (cytosine-5)-methyltransferase 1 (Homo sapiens, UniProt P26358); test: inhibition of DNA methylation by DNMT1 – biochemical, fluorescent molecular beacon, confirmation (AID 602386); type: functional
[21] = molecular target: 26S proteasome non-ATPase regulatory subunit 14 (Homo sapiens, UniProt O00487); test: inhibition of proteasome subunit RPN11 – biochemical, fluorescence polarization, uHTS hits, confirmation (AID 602368); type: functional
[22] = molecular target: 72 kDa type IV collagenase (Homo sapiens, UniProt P08253); test: Dose Response validation of uHTS RPN11 inhibitor hits using a MMP-2 Fluorescence assay.; type: functional
[23] = molecular target: Prothrombin (Bos taurus, UniProt P00735); test: thrombin protease inhibitors – biochemical, fluorescence polarization, uHTS hits, dose response (AID 602369); type: functional
[24] = molecular target: T5, Small ubiquitin-related modifier 1 (Homo sapiens, UniProt P63165); test: SUMO1 protein interaction blockers, potency – biochemical, fluorescence polarization, uHTS hits, dose response (AID 624382); type: functional; settings: read-out: IC50_Mean
[25] = molecular target: T5, Small ubiquitin-related modifier 1; test: SUMO1 protein-protein binding blockers, potency – biochemical, FRET, dose response (AID 624383); type: functional; settings: read-out: IC50_Mean
[26] = molecular target: T6, Caspase-6 (Homo sapiens, UniProt P55212); test: inhibition of CASP6 peptide cleavage – biochemical, VEID-R110 fluorescence, cherry-pick, dose response (AID 720632)
T6 sequence (P55212 whole entry): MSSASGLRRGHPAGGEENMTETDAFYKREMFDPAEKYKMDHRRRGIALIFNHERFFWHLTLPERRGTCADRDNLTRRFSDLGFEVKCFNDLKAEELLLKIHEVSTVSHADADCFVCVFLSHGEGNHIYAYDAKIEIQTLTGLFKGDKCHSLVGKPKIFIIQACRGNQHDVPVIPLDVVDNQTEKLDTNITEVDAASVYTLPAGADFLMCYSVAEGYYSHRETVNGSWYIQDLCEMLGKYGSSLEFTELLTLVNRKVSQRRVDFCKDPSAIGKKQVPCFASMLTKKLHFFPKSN

[27] = molecular target: Caspase-7 (Homo sapiens, UniProt P55210); test: caspase-7 enzyme inhibition, selectivity check – biochemical, DEVD-R110 fluorescence, cherry-pick, selectivity assay for caspase-6 inhibitor project, dose response (AID 743295); type: functional
[28] = molecular target: Caspase-8 (Homo sapiens, UniProt Q14790); test: inhibitors of purified CASP8 protease – biochemical, Z-IETD-R110 fluorescence, cherry-picked samples, selectivity assay for caspase-6 inhibitor project, dose response (AID 743294)
[29] = viability loss in THP-1 monocytes – THP-1 cells, cytotoxicity control for Vif-APOBEC3G degradation inhibitor project, dose response (AID 1117359); type: functional; settings: THP-1

T5 sequence (P63165 whole entry): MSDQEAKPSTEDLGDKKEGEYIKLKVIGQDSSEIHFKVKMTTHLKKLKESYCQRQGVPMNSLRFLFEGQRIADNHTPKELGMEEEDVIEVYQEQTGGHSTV
Potassium channel subfamily K member 3 (Rattus norvegicus, UniProt O54912), sequence (O54912 whole entry, the tested form may be a part): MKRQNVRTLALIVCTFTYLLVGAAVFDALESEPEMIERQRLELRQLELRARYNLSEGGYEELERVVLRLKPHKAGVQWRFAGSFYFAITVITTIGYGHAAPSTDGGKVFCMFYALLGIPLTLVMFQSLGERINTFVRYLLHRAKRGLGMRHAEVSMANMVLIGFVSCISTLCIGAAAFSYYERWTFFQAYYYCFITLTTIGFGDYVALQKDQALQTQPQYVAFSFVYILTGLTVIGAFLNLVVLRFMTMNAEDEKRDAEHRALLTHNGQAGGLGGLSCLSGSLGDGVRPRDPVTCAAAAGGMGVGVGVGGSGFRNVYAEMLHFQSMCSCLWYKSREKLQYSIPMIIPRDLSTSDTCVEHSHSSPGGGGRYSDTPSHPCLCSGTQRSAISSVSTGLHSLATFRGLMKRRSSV
Caspase-8, sequence (Q14790 217-374 limits assumed): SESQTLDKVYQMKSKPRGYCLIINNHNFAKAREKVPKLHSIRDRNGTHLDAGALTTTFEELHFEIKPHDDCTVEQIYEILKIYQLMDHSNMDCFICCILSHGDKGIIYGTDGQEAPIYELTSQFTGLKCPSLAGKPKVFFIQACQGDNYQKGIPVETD
Caspase-8, sequence (Q14790 385-479 limits assumed): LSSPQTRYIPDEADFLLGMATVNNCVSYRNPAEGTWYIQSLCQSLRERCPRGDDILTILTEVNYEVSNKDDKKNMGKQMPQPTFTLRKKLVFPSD
Caspase-7, sequence (P55210 24-198 limits assumed): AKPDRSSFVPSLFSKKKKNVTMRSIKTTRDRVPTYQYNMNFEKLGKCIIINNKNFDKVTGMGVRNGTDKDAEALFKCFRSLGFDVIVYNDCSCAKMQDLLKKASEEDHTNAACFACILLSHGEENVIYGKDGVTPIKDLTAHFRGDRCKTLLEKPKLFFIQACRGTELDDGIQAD
Caspase-7, sequence (P55210 207-303 limits assumed): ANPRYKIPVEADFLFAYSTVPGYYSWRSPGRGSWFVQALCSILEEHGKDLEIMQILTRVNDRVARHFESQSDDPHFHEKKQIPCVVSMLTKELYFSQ
1-phosphatidylinositol 4,5-bisphosphate phosphodiesterase beta-3, sequence (Q01970 whole entry, the tested form may be a part): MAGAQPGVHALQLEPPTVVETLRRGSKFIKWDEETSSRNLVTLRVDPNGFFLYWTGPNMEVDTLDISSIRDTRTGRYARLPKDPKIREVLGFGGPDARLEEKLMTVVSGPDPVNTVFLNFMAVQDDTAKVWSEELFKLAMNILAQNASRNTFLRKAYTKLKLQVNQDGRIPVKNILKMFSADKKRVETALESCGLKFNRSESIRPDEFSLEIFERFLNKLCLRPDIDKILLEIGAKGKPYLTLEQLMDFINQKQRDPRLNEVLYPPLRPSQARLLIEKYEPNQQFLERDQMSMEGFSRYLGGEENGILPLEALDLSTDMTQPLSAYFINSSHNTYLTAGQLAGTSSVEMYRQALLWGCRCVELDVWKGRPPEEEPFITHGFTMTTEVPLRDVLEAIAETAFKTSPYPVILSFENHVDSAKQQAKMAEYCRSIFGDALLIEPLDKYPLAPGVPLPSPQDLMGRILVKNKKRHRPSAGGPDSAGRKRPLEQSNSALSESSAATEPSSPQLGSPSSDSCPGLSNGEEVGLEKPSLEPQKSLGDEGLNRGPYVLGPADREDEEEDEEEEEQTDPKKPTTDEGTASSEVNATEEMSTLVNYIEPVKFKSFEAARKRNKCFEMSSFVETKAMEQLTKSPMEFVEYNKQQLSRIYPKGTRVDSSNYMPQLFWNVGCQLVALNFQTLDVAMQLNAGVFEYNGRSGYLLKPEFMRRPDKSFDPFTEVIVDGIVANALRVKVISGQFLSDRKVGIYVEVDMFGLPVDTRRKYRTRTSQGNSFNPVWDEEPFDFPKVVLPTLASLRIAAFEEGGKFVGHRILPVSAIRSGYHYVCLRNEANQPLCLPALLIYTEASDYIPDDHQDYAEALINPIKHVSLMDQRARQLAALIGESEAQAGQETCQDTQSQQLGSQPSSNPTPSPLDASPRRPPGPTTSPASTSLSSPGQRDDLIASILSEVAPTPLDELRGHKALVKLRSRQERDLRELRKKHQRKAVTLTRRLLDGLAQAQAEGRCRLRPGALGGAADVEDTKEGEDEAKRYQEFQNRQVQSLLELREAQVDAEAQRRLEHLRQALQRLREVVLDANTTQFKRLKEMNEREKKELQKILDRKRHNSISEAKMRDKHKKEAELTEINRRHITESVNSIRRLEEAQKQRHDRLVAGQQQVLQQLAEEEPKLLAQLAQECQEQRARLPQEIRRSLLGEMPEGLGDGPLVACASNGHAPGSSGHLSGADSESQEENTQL
26S proteasome non-ATPase regulatory subunit 14, sequence (O00487 whole entry): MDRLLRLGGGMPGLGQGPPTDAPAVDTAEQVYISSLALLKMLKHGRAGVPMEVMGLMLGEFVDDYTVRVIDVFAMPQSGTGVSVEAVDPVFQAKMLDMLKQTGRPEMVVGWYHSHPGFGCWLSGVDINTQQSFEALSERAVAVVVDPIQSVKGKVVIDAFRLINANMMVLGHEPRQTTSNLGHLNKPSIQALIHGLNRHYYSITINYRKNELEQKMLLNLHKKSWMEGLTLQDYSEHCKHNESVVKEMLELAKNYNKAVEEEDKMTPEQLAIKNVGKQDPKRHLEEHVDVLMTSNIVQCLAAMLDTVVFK
Potassium channel subfamily K member 9, sequence (Q9NPC2 whole entry, the tested form may be a part): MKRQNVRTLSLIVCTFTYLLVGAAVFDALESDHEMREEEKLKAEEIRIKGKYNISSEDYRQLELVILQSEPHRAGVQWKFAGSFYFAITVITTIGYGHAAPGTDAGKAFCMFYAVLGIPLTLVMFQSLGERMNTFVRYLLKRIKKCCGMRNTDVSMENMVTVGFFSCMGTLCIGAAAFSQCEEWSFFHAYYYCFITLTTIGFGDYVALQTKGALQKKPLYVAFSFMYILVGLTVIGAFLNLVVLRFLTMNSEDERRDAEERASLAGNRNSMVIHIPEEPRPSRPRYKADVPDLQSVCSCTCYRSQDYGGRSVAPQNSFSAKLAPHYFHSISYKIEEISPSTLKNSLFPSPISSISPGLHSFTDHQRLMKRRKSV
Potassium channel subfamily K member 3 (Homo sapiens, UniProt O14649), sequence (O14649 whole entry): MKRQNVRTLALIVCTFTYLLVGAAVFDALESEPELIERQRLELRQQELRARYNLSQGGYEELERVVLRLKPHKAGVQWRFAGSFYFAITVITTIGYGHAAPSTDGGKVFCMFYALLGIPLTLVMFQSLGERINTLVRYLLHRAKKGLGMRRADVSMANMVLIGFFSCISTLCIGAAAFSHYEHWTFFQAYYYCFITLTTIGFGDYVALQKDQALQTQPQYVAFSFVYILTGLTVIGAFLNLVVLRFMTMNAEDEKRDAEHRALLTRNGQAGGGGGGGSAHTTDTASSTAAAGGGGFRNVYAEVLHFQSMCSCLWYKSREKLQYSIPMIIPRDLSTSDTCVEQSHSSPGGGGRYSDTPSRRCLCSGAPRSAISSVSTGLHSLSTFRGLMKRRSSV
Genome polyprotein, sequence (P29990 2492-3391 limits assumed): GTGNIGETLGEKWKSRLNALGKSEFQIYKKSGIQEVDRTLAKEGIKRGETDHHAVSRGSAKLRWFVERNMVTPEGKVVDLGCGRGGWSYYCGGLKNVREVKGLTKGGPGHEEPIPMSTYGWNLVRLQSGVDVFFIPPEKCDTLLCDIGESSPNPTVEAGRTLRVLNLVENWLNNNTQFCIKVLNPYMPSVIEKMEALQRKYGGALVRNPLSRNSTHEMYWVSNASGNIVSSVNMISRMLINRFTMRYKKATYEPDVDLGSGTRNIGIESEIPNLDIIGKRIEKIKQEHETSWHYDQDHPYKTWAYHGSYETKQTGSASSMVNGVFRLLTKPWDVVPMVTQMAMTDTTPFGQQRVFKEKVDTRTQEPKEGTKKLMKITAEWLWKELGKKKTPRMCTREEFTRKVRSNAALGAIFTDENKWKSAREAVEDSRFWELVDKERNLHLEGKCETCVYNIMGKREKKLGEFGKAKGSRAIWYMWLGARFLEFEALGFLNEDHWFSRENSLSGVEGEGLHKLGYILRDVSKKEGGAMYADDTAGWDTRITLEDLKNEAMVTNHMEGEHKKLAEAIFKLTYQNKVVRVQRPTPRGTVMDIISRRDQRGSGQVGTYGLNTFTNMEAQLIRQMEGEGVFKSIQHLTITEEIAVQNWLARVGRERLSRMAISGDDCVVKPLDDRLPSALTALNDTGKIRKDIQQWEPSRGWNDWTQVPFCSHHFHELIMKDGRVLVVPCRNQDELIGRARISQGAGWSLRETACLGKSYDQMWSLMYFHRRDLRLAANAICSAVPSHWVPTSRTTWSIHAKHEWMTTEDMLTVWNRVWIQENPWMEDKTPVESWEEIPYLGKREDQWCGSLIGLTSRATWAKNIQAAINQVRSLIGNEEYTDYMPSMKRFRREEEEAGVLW
72 kDa type IV collagenase, sequence (P08253 whole entry): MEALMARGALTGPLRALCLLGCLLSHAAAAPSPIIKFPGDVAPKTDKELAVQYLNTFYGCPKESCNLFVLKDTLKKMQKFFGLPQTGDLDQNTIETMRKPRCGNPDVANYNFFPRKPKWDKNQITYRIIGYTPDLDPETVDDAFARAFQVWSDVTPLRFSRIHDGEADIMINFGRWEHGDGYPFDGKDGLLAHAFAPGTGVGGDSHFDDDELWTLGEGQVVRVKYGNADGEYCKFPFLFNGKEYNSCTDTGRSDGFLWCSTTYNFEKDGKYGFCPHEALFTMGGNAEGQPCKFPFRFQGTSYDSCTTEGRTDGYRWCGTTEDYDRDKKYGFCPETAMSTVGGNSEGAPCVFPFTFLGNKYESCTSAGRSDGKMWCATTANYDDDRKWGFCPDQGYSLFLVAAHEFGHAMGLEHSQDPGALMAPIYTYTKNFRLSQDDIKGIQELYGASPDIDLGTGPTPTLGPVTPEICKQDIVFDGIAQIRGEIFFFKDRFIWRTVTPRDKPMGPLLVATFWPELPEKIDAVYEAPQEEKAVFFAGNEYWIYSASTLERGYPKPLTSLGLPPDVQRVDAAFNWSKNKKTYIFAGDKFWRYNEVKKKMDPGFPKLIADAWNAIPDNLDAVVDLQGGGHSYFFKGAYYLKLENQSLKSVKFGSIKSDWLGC

COc1ccccc1NC(=O)c1cccc(NC(=O)c2ccccc2OC)c1
IC50 [1]: 3.02 µM (active) | IC50 [2]: 0.03 µM (active) | IC50 [3]: 0.008 µM (active)

O=C1C(O)=C(O)C(=O)c2ccccc21
IC50 [4]: 12.5 µM (active) | IC50 [5]: > 100 µM (active) | IC50 [6]: 19.3 µM (inactive)

O=C1S/C(=C\c2ccc(N3CCOCC3)o2)C(=O)N1Cc1c(F)cccc1Cl
EC50 [7]: 6.68 µM (active) | EC50 [8]: > 260 µM (inactive) | AC50 [9]: 18.5 µM (active) | AC50 [10]: 6.72 µM (active) | AC50 [11]: 42.1 µM (active)

O=[N+]([O-])c1cccc(S(=O)(=O)Nc2cc(Sc3nc4ccccc4s3)c(O)c3ccccc23)c1
CC50 [12]: 11.5 µM (active)

CO[C@@H]1CN(C)C(=O)c2cc(NC(=O)Nc3ccc(Cl)c(Cl)c3)ccc2OC[C@H](C)NC[C@H]1C
AC50 [13]: 24.8 µM (active) | AC50 [14]: > 52 µM (inactive) | AC50 [15]: 6.4 µM (active) | AC50 [16]: 7.83 µM (active)

COc1ccc(NC(=O)c2sc3cc(C(F)(F)F)cnc3c2-c2cccs2)cc1
IC50 [17]: > 122 µM (inactive) | IC50 [18]: > 122 µM (inactive)

Cc1ccc(NC(=O)CN(C)C(=O)c2cccc(-n3cccc3)c2)cc1
IC50 [19]: 5.68 µM (active) | IC50 [20]: 9.26 µM (active) | IC50 [21]: 11 µM (active) | IC50 [22]: 18.4 µM (active) | IC50 [23]: 86.9 µM (active) | IC50 [24]: > 66.6 µM (inactive) | IC50 [25]: 5.95 µM (active) | AC50 [26]: 1.5 µM (active) | AC50 [27]: > 70 µM (inactive) | AC50 [28]: > 70 µM (inactive) | CC50 [29]: > 40 µM (active)
